Data set [1] is described as follows: Free Cmax in Beagle dog at 60 mg/kg, po qd measured after 91 days. Type of data set: ADME, organism-based, Canis lupus familiaris. To be noted: in vivo, 2184 h, time 91 day.
A short description of data set [2]: Drug concentration in Sprague-Dawley rat liver at 10 mg/kg, po measured for 24 hrs by LC-MS/MS analysis. Type of data set: ADME, organism-based. To be noted: read-out: Ct.
A short description of data set [3]: Free AUC (0 to 24 hrs) in Beagle dog at 5 mg/kg, po qd measured after 91 days. Type of data set: ADME, organism-based, Canis lupus familiaris. To be noted: in vivo, 2184 h, time 91 day.
Data set [4] is described as follows: Total AUC (0 to 24 hrs) in Beagle dog at 45 mg/kg, po qd measured after 91 days. Type of data set: ADME, organism-based, Canis lupus familiaris. The note with it: in vivo, time 91 day.
The target in another data set is CYP3A4 (Homo sapiens, UniProt P08684). The data set can be described thus: Inhibition of CYP3A4 in human liver microsomes using testosterone as substrate preincubated for 30 min followed by NADPH addition measured after 12 mins by LC-MS/MS analysis. The format is ADME, Microsome. The note with it: human, liver microsomes, probe testosterone.
Chain of CYP3A4 (P08684 whole entry): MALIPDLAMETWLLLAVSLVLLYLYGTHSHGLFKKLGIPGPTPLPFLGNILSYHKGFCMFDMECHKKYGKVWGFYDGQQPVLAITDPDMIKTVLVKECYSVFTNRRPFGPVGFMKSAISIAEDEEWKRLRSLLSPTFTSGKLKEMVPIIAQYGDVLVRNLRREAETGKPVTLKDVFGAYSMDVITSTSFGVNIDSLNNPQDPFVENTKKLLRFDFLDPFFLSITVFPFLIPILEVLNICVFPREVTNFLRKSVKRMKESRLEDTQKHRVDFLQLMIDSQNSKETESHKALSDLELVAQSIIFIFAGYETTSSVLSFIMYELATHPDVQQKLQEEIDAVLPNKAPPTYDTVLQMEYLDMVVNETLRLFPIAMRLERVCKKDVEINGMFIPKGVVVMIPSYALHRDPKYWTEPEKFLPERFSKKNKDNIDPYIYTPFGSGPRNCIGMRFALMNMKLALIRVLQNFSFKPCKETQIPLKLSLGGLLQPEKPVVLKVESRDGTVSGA
A short description of data set [5]: Total AUC (0 to 24 hrs) in Beagle dog at 15 mg/kg, po qd measured after 91 days. Type of data set: ADME, organism-based, Canis lupus familiaris. To be noted: in vivo, time 91 day.
Data set [6] concerns Hepatitis B virus. The data set can be described thus: Antiviral activity against HBV infected in immuno-competent mouse model assessed as log10 reduction serum HBsAg. The format is functional.
The next data set addresses CYP2C19 (Homo sapiens, UniProt P33261). The data set can be described thus: Inhibition of CYP2C19 in human liver microsomes using S-mephenytoin as substrate preincubated for 30 min followed by NADPH addition measured after 12 mins by LC-MS/MS analysis. The format is ADME, Microsome. To be noted: human, liver microsomes, probe S-mephenytoin. Background: Liver microsomes are vesicles of endoplasmic reticulum, rich in cytochrome P450 enzymes.

A short description of data set [7]: Drug concentration in Sprague-Dawley rat heart at 10 mg/kg, po measured for 24 hrs by LC-MS/MS analysis. The format is ADME, organism-based. The note with it: read-out: Ct.
Data set [8] can be described thus: Total AUC (0 to 24 hrs) in Beagle dog at 5 mg/kg, po qd measured after 91 days. The format is ADME, organism-based, Canis lupus familiaris. To be noted: in vivo, time 91 day.
Data set [9] can be described thus: Free Cmax in Beagle dog at 15 mg/kg, po qd measured after 91 days. The note with it: in vivo, 2184 h, time 91 day. The format is ADME, organism-based, Canis lupus familiaris.
The nature of data set [10]: Free AUC (0 to 24 hrs) in Beagle dog at 15 mg/kg, po qd measured after 91 days. Type of data set: ADME, organism-based, Canis lupus familiaris. The note with it: in vivo, 2184 h, time 91 day.
Data set [11] can be described thus: Drug concentration in Sprague-Dawley rat plasma at 10 mg/kg, po measured for 24 hrs by LC-MS/MS analysis. To be noted: read-out: Ct. Type of data set: ADME, organism-based.
The nature of data set [12]: Free AUC (0 to 24 hrs) in Beagle dog at 60 mg/kg, po qd measured after 91 days. Type of data set: ADME, organism-based, Canis lupus familiaris. The note with it: in vivo, 2184 h, time 91 day.
The nature of data set [13]: Toxicity in Beagle dog assessed as uncoordinated movements at 15 mg/kg, po qd measured after 14 days. Type of data set: organism-based, Canis lupus familiaris. The note with it: in vivo, 336 h, time 14 day.
Data set [14] in a line: Oral bioavailability in Sprague-Dawley rat at 10 mg/kg measured for 24 hrs by LC-MS/MS analysis. Type of data set: ADME, organism-based. To be noted: in vivo.
Data set [15] is described as follows: Total Cmax in Beagle dog at 5 mg/kg, po qd measured after 91 days. The format is ADME, organism-based, Canis lupus familiaris. The note with it: in vivo, time 91 day.
In another data set the target is T1, CYP1A2 (Homo sapiens, UniProt P05177).
T1 sequence (P05177 whole entry): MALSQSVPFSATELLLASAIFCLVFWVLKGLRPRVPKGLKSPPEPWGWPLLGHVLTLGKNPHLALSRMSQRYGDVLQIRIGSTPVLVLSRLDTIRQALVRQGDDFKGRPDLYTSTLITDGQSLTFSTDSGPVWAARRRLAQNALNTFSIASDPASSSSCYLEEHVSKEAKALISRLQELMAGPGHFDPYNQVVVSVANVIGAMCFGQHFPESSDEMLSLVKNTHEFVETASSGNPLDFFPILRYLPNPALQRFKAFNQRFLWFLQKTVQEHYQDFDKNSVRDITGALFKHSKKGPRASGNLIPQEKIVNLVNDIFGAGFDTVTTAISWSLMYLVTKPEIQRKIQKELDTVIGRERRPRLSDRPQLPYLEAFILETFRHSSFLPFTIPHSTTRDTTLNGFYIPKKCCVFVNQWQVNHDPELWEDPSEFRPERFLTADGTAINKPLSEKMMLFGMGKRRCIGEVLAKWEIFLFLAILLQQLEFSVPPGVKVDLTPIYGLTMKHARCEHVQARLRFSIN
Description: Inhibition of CYP1A2 in human liver microsomes using phenacetin as substrate preincubated for 30 min followed by NADPH addition measured after 12 mins by LC-MS/MS analysis. Type of data set: ADME, Microsome. To be noted: human, liver microsomes, probe phenacetin.

Data set [16] has as its system Hepatitis B virus. The data set can be described thus: Antiviral activity against HBV genotype D in immuno-competent C57BL/6 mouse model of chronic HBV assessed as log10 reduction in HBsAg production at 10 mg/kg, po qd for 7 days measured 24 hrs post-last dose by EIA relative to control. The format is functional. The note with it: time 8 day.
Data set [17] is described as follows: Total AUC (0 to 24 hrs) in Beagle dog at 15 mg/kg, po qd measured after 60 days. The format is ADME, organism-based, Canis lupus familiaris. The note with it: in vivo, time 60 day.
Data set [18] can be described thus: Toxicity in male Beagle dog assessed as fold increase in alanine aminotransferase level at 45 mg/kg, po qd measured for 60 days. The format is organism-based, Canis lupus familiaris. The note with it: in vivo, 1440 h, time 60 day.
Data set [19] can be described thus: Free Cmax in Beagle dog at 15 mg/kg, po qd measured after 60 days. The format is ADME, organism-based, Canis lupus familiaris. The note with it: in vivo, 1440 h, time 60 day.
Data set [20] is described as follows: Toxicity in male Beagle dog assessed as decrease in body weight at 15 to 45 mg/kg, po qd measured for 60 days. The format is organism-based, Canis lupus familiaris. Set-up: scale not given: the % may be the effect or the level left. To be noted: in vivo, 1440 h, dose 15-45 mg/kg, time 60 day.
Data set [21] is described as follows: Free AUC (0 to 24 hrs) in Beagle dog at 45 mg/kg, po qd measured after 60 days. Type of data set: ADME, organism-based, Canis lupus familiaris. The note with it: in vivo, 1440 h, time 60 day.
Data set [22] in a line: Toxicity in Beagle dog assessed as uncoordinated movements at 15 to 45 mg/kg, po qd measured after 60 days. Type of data set: organism-based, Canis lupus familiaris. The note with it: in vivo, 1440 h, dose 15-45 mg/kg, time 60 day.
The test system of data set [23] is Hepatitis B virus. The data set can be described thus: Antiviral activity against HBV infected in human primary hepatocytes assessed as reduction in HBeAg production pre-infected cells with virus followed by inoculum removal and subsequent addition of compounds with replenishment on days 4,7,9,11 and 14 post-infection measured after 16 days. The format is functional, organism-based. To be noted: Hepatocyte, 384 h.

A short description of data set [24]: Free AUC (0 to 24 hrs) in Beagle dog at 15 mg/kg, po qd measured after 60 days. To be noted: in vivo, 1440 h, time 60 day. The format is ADME, organism-based, Canis lupus familiaris.
Data set [25] in a line: Toxicity in male Beagle dog assessed as fold decrease in total protein level at 15 mg/kg, po qd measured for 60 days. Type of data set: organism-based, Canis lupus familiaris. Set-up: scale not given: the % may be the effect or the level left. The note with it: in vivo, 1440 h, time 60 day.

Chain of CYP2C19 (P33261 whole entry): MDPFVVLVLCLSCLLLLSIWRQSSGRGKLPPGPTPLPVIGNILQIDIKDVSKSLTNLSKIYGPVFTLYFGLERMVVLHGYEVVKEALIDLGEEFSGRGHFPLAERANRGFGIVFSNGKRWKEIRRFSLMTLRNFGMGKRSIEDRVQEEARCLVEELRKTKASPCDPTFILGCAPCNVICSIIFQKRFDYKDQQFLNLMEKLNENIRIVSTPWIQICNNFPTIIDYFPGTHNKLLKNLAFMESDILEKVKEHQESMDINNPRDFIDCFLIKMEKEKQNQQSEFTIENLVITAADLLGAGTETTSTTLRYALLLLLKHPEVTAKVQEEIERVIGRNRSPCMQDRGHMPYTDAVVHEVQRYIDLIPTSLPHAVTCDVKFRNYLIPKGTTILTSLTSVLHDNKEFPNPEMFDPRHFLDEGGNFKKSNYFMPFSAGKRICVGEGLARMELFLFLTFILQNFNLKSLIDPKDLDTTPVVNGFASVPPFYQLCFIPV

Regarding `COCCCOc1cc2c(nc1OC)-c1cc(=O)c(C(=O)O)cn1[C@H](C(C)C)C2`, the fCmax in [1] was 6940 ng/mL; in data set [9], 4270 ng/mL. The values for the concentration at 24 h in data set [2], in [7] and in data set [11] were 93 ng/g, 53 ng/g and 28.2 ng/g, respectively. Moreover, the values for the fAUC in data set [3], in [10] and in data set [12] were 3900 ng·h/mL, 11400 ng·h/mL and 47500 ng·h/mL, respectively. The results for the exposure (AUC) at 2184 h in [4], in [5] and in data set [8] were 95200 ng·h/mL, 30600 ng·h/mL and 10500 ng·h/mL, respectively. Besides, the IC50 at 12 min against CYP3A4, at CYP2C19 and against CYP1A2 was > 25 µM throughout. Further, the “log(activity)” value in the data set on Hepatitis B virus [6] is listed as “<=0.94”; with Hepatitis B virus [16], 0.98. Besides, in [13], the Activity result is given as “Toxic”. Moreover, in data set [14], the bioavailability was 80%. In data set [15], the Cmax came out at 4680 ng/mL.

Regarding `COc1cc(OC(F)F)c2nc3c(n2c1)C[C@@H](C(C)(C)C)c1cc(C(=O)O)c(=O)[nH]c1-3`, in [17], the exposure (AUC) at 1440 h stood at 3900 ng·h/mL. Besides, in [18], the “fold change (FC)” value was < 2. The fCmax in data set [19] is 653 ng/mL. The Activity in data set [20] is recorded as < 15%; in data set [22], “Non-Toxic”; in data set [25] it was < 20%. The fAUC is 3100 ng·h/mL in [21] and 1830 ng·h/mL in data set [24]. In addition, the EC50 with Hepatitis B virus [23] amounted to 0.0085 µM.

In general, AUC refers to concentration integrated over time. By IC50 is commonly meant the concentration that gives 50% inhibition. For orientation: bioavailability means the share of a dose that reaches the circulation, judged against a reference dose that is usually intravenous. In general, Cmax refers to the maximum level reached in the sampled fluid or tissue. In general, EC50 refers to the concentration needed to bring the measured effect to its halfway point.

The record behind these values is ChEMBL document CHEMBL6127124, “Structure-Activity Relationships and Discovery of (S)-5-(tert-Butyl)-11-(difluoromethoxy)-9-methoxy-2-oxo-1,2,5,6-tetrahydropyrido[2',1':2,3]imidazo[4,5-h]quinoline-3-carboxylic Acid (AB-161), a Novel Orally Available and Liver-Centric HBV RNA Destabilizer” (J Med Chem, 2024).
